Measurements reported in patent US20190008957A1, “COMBINATION THERAPIES INCLUDING INHIBITORS OF THE EXTRACELLULAR DOMAIN OF E-CADHERIN” (The Research Foundation for The State of New York, priority 2012, published 2019).

Assays:
[1] = system: MEK1/2, ERK1/2, PI3K, Akt, mTOR, p70S6K, 4EBP1; test: Western blot of downstream MAPK-PI3K/Akt/mTOR signaling in SCC cell lines; type: cell-based
Procedure: (§3) After brief sonication, lysates were cleared by centrifugation at 4° C. […] After transfer to nitrocellulose membrane and blocking with 1% BSA, samples were probed with primary antibodies. Western blot images were captured using HP Scanjet G4050 and analyzed relative to G3PDH or actin using NIH Scion Image.
(§4) Antibodies against total HER1 and HER 4 and phosphorylated HER1-4, pPI3K, pAkt, pmTOR, p4E-BP1, pRaptor and pp70S6K obtained from Cell Signaling Technologies. Monoclonal antibodies to HER3 and HER4 were obtained from Thermo Scientific. Polyclonal antibody to the extracellular domain of E-cadherin and monoclonal antibody to α-actin were obtained from Santa Cruz Biotechnology. Monoclonal antibody to the extracellular domain of E-cadherin (DECMA-1) and to His Tag were obtained from Sigma and Abcam, respectively. Monoclonal antibody to G3PDH, ubiquitin and rat IgG1 were obtained from Ambion, Zymed and Southern Biotechnology, respectively.

MMP-2 and MMP-9 = test: MMP-9 ELISA and gelatin zymography of conditioned media; type: cell-based, mouse; settings: PAM212 cells; inhibitors either alone or in combination
Procedure: Conditioned media from control or sEcad treated cells were concentrated 10-fold using Centricon devices (Millipore; Bedford, Mass.) according to the manufacturer's instructions and applied to SDS-PAGE gels containing gelatin (0.1% w/v). Gels were washed twice in renaturing buffer (Invitrogen) and incubated at 37° C. for 24 h in developing buffer (Invitrogen). Gels were stained with Coomassie blue and destained with methanol:acetic acid (50:10). Zymogram is representative of triplicate experiments.
Conditioned media from human and mouse cells were analyzed for MMP-9 using human and mouse […] Quantikine ELISA Kits and mouse MMP-9 ELISA kit (R&D Systems, Minneapolis, Minn.), according to the manufacturer's specifications, respectively. For measuring mouse MMP-9, serum-free medium was added to cell cultures and cells were exposed to increasing concentrations of sEcad (rmEcad/Fc; R&D Systems) for 24 hours. The culture media were collected and concentrated using Centrifugal Ultra Filters (Millipore, Billerica, Mass.) and MMP-9 levels were measured by ELISA. Each experiment was performed in triplicate.

[2] = system: skin (SCC12b, SCC13, PAM212 and CC4A) and the head & neck FADU cell line; test: Matrigel invasion of SCC cells; type: cell-based
[3] = system: skin (PAM212, CC4A, SCC12b, SCC13) and oropharyngeal (FADU) cells; test: Transwell migration of SCC cells; type: cell-based
Procedure: (§1) For BrdU staining, cells were incubated with 10 μM BrdU for 2 h prior to fixation and processed for immunofluorescence microscopy as previously described (Brouxhon et al., Cancer Res. 67:7654-64, 2007). For BrdU analyses, cells were counted from 6 low-power fields (×100) per section. BrdU incorporation was also analyzed by a cell proliferation ELISA 5-bromo-2′-deoxyuridine (BrdU) (colorimetric) kit (Roche, Stockholm, Sweden), according to the manufacturer's instructions. Migration and invasion of cells were measured using 8.0 μm pore BD BioCoat Control Insert 24-well plates (no. 354578) and Matrigel Invasion Chamber 24-well Plates (no. 354480), respectively (BD Bioscience). Cells were collected, washed, and 2×10^5 cells were plated in 0.4% FBS medium in the top chamber, with 0-20 μg/mL of rhEcad/Fc in the bottom chamber. After 22 h, cells on the top were removed using a cotton swab. Migrated or invaded cells on the lower surface were fixed with methanol, stained with 0.5% crystal violet, examined by bright field microscopy and photographed. Migration or invasion was quantitated by counting migrated or invaded cells in at least ten random high-power fields per insert and expressed as averages. Results are presented as fold change of the number of migrated/invaded cells to the untreated controls in triplicate experiments.

[4] = system: oropharyngeal FADU and skin SCC (PAM212, CC4A, SCC13 and SCC12b) cell lines; test: Proliferation in oropharyngeal and skin SCC cell lines; type: cell-based
Procedure: as §1

[5] = system: HER2 overexpressing BT474 cells; settings: cited from earlier work
[6] = system: MCF-7, SKBR3 and MDA-MB-231 breast cancer cell lines; test: BrdU proliferation in breast cancer cell lines; type: cell-based, human
Procedure: as §1

survivin = settings: HER2-positive tumors from patients; cited from earlier work
HER1, HER2, IGF-1R = test: Western blot of receptor phosphorylation in skin and oropharyngeal SCC cell lines; type: cell-based; settings: PAM212 cells
Procedure: as §3, §4

HER1-4 [7] = test: Western blot of HER phosphorylation in breast cancer cells; type: cell-based, human; settings: MCF-7 and SKBR3 cells, 26 h after stimulation
From the text: (§2) The association of sEcad with these RTK was also confirmed by in vitro studies. Specifically, in cell culture systems, extracts from sEcad (rhEcad/Fc:His tagged) treated E-cadherin positive MCF-7 and E-cadherin negative SKBR3 and MDA-MB-231 breast cancer cells were immunoprecipitated with HER1-4-specific antibodies and analyzed by western blotting with a His-tagged-specific antibody. Here, we detected HER1-4-sEcad, HER1-2-sEcad and HER1-sEcad interactions in MCF, SKBR3 and MDA-MB-231 breast cancer cells, respectively. […] Because ligand binding to the HER family of receptors induces the formation of homo- and heterodimers, resulting in phosphorylation on specific tyrosine residues within the cytoplasmic domain (Yarden and Siliwkowski, Nature Reviews. 2:127-137, 2001), we next used western blot assays to examine whether sEcad promotes HER phosphorylation and downstream signaling.
Immunoprecipitation assays were carried out by harvesting tissues or cells with immunoprecipitation lysis buffer (20 mM Tris-HCl, pH 7.5; 137 mM NaCl; 100 mM NaF; 10% glycerol (vol/vol); 1% (vol/vol) Nonidet P-40; 1 mM PMSF and protease inhibitor cocktail (Sigma)). After brief sonication, lysates were cleared by centrifugation at 4° C. […] Western blot images were captured using HP Scanjet G4050 and analyzed relative to G3PDH or actin using NIH Scion Image. […]

[8] = system: MDA-MB-231 and MCF-7 breast cancer cells; test: Matrigel invasion of breast cancer cells; type: cell-based, human; settings: MCF-7 cells, 24 h, equimolar concentrations
Procedure: as §1, with “After 22 h, cells on the top were removed using a cotton swab.” left out

[9] = system: ERK1/2, PI3K/Akt, mTOR, p70S6K, 4EBP1; test: Western blot of downstream MAPK-PI3K/Akt/mTOR signaling in breast cancer cell lines; type: cell-based, human
From the text: We speculated that this effect may be mediated by molecular abnormalities in signaling pathways that promote cell growth downstream of HERs. Specifically, the lipid kinase phosphoinositide-3-kinase (PI3K) and the protein-serine/threonine kinases Akt, and mTOR signaling pathways are important mediators of HER receptor signaling and are causally involved in breast and other malignancies (Schmelzle and Hall, Cell 103:253-262, 2000). […] As the p70S6 kinase and eIF4E binding protein 1 (4EBP1) are among the most well characterized targets of mTOR (Schmelzle and Hall, Cell 103:253-262, 2000), we next studied the phosphorylation of p70S6K at Thr-389 and 4EBP1 at Thr-37 by western blotting.
Immunoprecipitation assays were carried out by harvesting tissues or cells with immunoprecipitation lysis buffer (20 mM Tris-HCl, pH 7.5; 137 mM NaCl; 100 mM NaF; 10% glycerol (vol/vol); 1% (vol/vol) Nonidet P-40; 1 mM PMSF and protease inhibitor cocktail (Sigma)). After brief sonication, lysates were cleared by centrifugation at 4° C. Supernatants were precleared and incubated with EGFR/HER1, HER2, HER3, HER4 or E-cadherin ectodomain-specific antibodies for 4 h and protein A/G plus agarose beads (Santa Cruz, sc-2003) for 2 h at 4° C. The immunocomplexes were washed three times, boiled in sample buffer (60 mM Tris-Cl, pH 6.8; 2% SDS (vol/vol); 10% glycerol (vol/vol); 5% […] (vol/vol); and 0.01% bromophenol blue (vol/vol), and loaded on SDS-PAGE for protein analysis. Protein extraction in cells was performed on ice using total protein extraction buffer: 20 mM Tris pH 7.5, 137 mM NaCl, 100 mM NaF, 10% glycerol, 1% NP40, 1 mM PMSF and protease inhibitor cocktail (Sigma). For normal and tumor tissues, sEcad was extracted in an aqueous solution (PBS) and not in the protein extraction buffer. Protein concentration was measured using a BCA Protein Assay Kit (Pierce). […] Western blot images were captured using HP Scanjet G4050 and analyzed relative to G3PDH or actin using NIH Scion Image. […]

[10] = system: breast (MCF-7, SKBR3) cells; test: Transwell migration of breast cancer cells; type: cell-based, human; settings: MCF-7 cells, 24 h, equimolar concentrations
Procedure: as §1, with “After 22 h, cells on the top were removed using a cotton swab.” left out

HER1-4 [11] = test: Immunoprecipitation of sEcad with HER receptors in breast cancer cells; type: binding, human
From the text: as §2
Immunoprecipitation assays were carried out by harvesting tissues or cells with immunoprecipitation lysis buffer (20 mM Tris-HCl, pH 7.5; 137 mM NaCl; 100 mM NaF; 10% glycerol (vol/vol); 1% (vol/vol) Nonidet P-40; 1 mM PMSF and protease inhibitor cocktail (Sigma)). After brief sonication, lysates were cleared by centrifugation at 4° C. […] The immunocomplexes were washed three times, boiled in sample buffer (60 mM Tris-Cl, pH 6.8; 2% SDS (vol/vol); 10% glycerol (vol/vol); 5% […] (vol/vol); and 0.01% bromophenol blue (vol/vol), and loaded on SDS-PAGE for protein analysis. Protein extraction in cells was performed on ice using total protein extraction buffer: 20 mM Tris pH 7.5, 137 mM NaCl, 100 mM NaF, 10% glycerol, 1% NP40, 1 mM PMSF and protease inhibitor cocktail (Sigma). For normal and tumor tissues, sEcad was extracted in an aqueous solution (PBS) and not in the protein extraction buffer. Protein concentration was measured using a BCA Protein Assay Kit (Pierce). […] Western blot images were captured using HP Scanjet G4050 and analyzed relative to G3PDH or actin using NIH Scion Image.

[12] = PAM212 cells, PI3K or MEK inhibitor 20 μM
[13] = PAM212 skin SCC cells, HER inhibitors

COc1cccc(-c2cc(=O)c3ccccc3o2)c1N [PD98059]
Akt phosphorylation by sEcad in the presence of the inhibitor ([1]; PAM212 cells, inhibitor 20 μM): enhanced
ERK1/2 phosphorylation ([1]; PAM212 cells, inhibitor 20 μM): decreased ERK1/2 phosphorylation
mTOR/p70S6K/4EBP1 phosphorylation ([1]; PAM212 cells, inhibitor 20 μM, even in the absence of rmEcad/Fc): increased
sEcad-induced activation of MMP-2 and MMP-9 (MMP-2 and MMP-9): significantly inhibited sEcad-induced activation of MMP-2 and MMP-9
sEcad-induced invasion [2, 12]: blocked
sEcad-induced migration [3, 12]: blocked
sEcad-induced PAM212 proliferation ([4]; PAM212 cells, inhibitor 20 μM): less significant effects

CS(=O)(=O)CCNCc1ccc(-c2ccc3ncnc(Nc4ccc(OCc5cccc(F)c5)c(Cl)c4)c3c2)o1 [Lapatinib]
sEcad-induced phosphorylation of 4EBP1 ([1]; PAM212 cells): minimal changes
sEcad-induced phosphorylation of ERK1/2, Akt and p70S6K ([1]; PAM212 cells): significantly down-regulated
sEcad-induced phosphorylation of PI3K ([1]; PAM212 cells): minimal changes
apoptosis [5]: induced apoptosis
survivin expression [5]: markedly reduced survivin expression
sEcad-induced invasion [2, 13]: effectively inhibited sEcad-induced proliferation, migration and invasion
sEcad-induced migration [3, 13]: effectively inhibited sEcad-induced proliferation, migration and invasion
basal and sEcad-induced BrdU incorporation ([6]; breast cancer cells, Canertinib 1 μM, Lapatinib 5 μM, Gefitinib 5 μM): significantly reduced both basal and sEcad-induced BrdU incorporation
sEcad-induced proliferation [4, 13]: effectively inhibited sEcad-induced proliferation, migration and invasion
survivin expression levels in tumors (survivin): marked inhibition of survivin expression levels
sEcad-induced HER1 phosphorylation (HER1, HER2, IGF-1R): significantly down-regulated
sEcad-induced HER2 phosphorylation (pHER2) (HER1, HER2, IGF-1R): minimal changes
phospho-IGF-1R levels (HER1, HER2, IGF-1R; in the presence of sEcad, compared to corresponding controls): did not alter

rhEcad/Fc: Recombinant human E-cadherin Fc chimera; extracellular domain residues 155-707 fused to human IgG1 Fc, 6x histidine-tagged
phosphorylated p70S6K (Thr-389) and 4EBP1 (Thr-37) levels ([1]; PAM212, CC4A cells versus untreated controls): higher
HER1-4 phosphorylation (HER1-4 [7]): notably increased
invasion [8]: significantly increased proliferation, migration and invasion
phosphorylated p70S6K (Thr-389) and 4EBP1 (Thr-37) levels ([9]; MCF-7, SKBR3 cells versus untreated controls): higher
ERK1/2, PI3K/Akt and mTOR activation ([9]; MCF-7 and SKBR3 cells): activation of ERK1/2, PI3K/Akt and mTOR
Akt activation ([9]; MDA-MB-231 TNBC cells): activation
migration [10]: significantly increased proliferation, migration and invasion
BrdU incorporation ([6]; 10 and 20 μg/mL, MCF-7, SKBR3 and MDA-MB-231): significantly increased
proliferation ([6]; MCF-7 cells, 24 h, equimolar concentrations): significantly increased proliferation, migration and invasion
receptors interacting with sEcad (HER1-4 [11]; MCF-7 cells (E-cadherin positive)): HER1-4-sEcad
receptors interacting with sEcad (HER1-4 [11]; MDA-MB-231 cells (E-cadherin negative)): HER1-sEcad
receptors interacting with sEcad (HER1-4 [11]; SKBR3 cells (E-cadherin negative)): HER1-2-sEcad
